≈ marks a conversion by molar mass, not a printed value.
Assays:
Test in all cases: In vitro MIC, 2010 surveillance isolates
MSSA = type: cell-based; details: N America; N=2373
A. baumanii = type: cell-based
MRSA = type: cell-based
E. faecalis VS = type: cell-based
Acinetobacter spp = type: cell-based; details: for range of MICs (N <10, shown instead of MIC90): N=9
K. pneumoniae ESBL+ = type: cell-based, Klebsiella pneumoniae
E. coli ESBL− = type: cell-based, Escherichia coli
E. faecalis VNS = type: cell-based
E. cloacae CeftazS = type: cell-based
MS CoNS = type: cell-based, Coagulase-Negative Staphylococcus; details: for % R (resistance): Eucast breakpoints

## CN(C)c1cc(NC(=O)CNC(C)(C)C)c(O)c2c1C[C@H]1C[C@H]3[C@H](N(C)C)C(O)=C(C(N)=O)C(=O)[C@@]3(O)C(O)=C1C2=O [Tigecycline]
MSSA
  MIC90: 0.25 µg/mL (≈ 0.427 µM)
A. baumanii; Asia/Pac, N=275
  MIC90: 1 µg/mL (≈ 1.71 µM)
A. baumanii; Europe, N=145
  MIC90: 2 µg/mL (≈ 3.41 µM)
A. baumanii; L. Amer, N=275
  MIC90: 2 µg/mL (≈ 3.41 µM)
A. baumanii; N America, N=154
  MIC90: 2 µg/mL (≈ 3.41 µM)
MRSA; Asia/Pac, Eucast breakpoints
  % R (resistance): 0%
MRSA; Asia/Pac, N=428
  MIC90: 0.25 µg/mL (≈ 0.427 µM)
MRSA; Europe, Eucast breakpoints
  % R (resistance): 0%
MRSA; Europe, N=750
  MIC90: 0.25 µg/mL (≈ 0.427 µM)
MRSA; L. Amer, CLSI breakpoints
  % R (resistance): 0%
MRSA; L. Amer, N=506
  MIC90: 0.25 µg/mL (≈ 0.427 µM)
MRSA; N America, CLSI breakpoints
  % R (resistance): 0%
MRSA; N America, N=2508
  MIC90: 0.25 µg/mL (≈ 0.427 µM)
E. faecalis VS; Asia/Pac, Eucast breakpoints
  % R (resistance): 0%
E. faecalis VS; Asia/Pac, N=214
  MIC90: 0.25 µg/mL (≈ 0.427 µM)
E. faecalis VS; Europe, Eucast breakpoints
  % R (resistance): 0%
E. faecalis VS; Europe, N=669
  MIC90: 0.25 µg/mL (≈ 0.427 µM)
E. faecalis VS; L. Amer, CLSI breakpoints
  % R (resistance): 0%
E. faecalis VS; L. Amer, N=290
  MIC90: 0.25 µg/mL (≈ 0.427 µM)
E. faecalis VS; N America, CLSI breakpoints
  % R (resistance): 0%
E. faecalis VS; N America, N=863
  MIC90: 0.25 µg/mL (≈ 0.427 µM)
Acinetobacter spp; Asia/Pac
  range of MICs (N <10, shown instead of MIC90): ≤0.03-1
Acinetobacter spp; Europe, N=43
  MIC90: 2 µg/mL (≈ 3.41 µM)
Acinetobacter spp; L. Amer
  range of MICs (N <10, shown instead of MIC90): ≤0.03-2
Acinetobacter spp; N America, N=42
  MIC90: 0.5 µg/mL (≈ 0.854 µM)
K. pneumoniae ESBL+; Asia/Pac, Eucast breakpoints
  % R (resistance): 3.2%
K. pneumoniae ESBL+; Asia/Pac, N=124
  MIC90: 1 µg/mL (≈ 1.71 µM)
K. pneumoniae ESBL+; Europe, Eucast breakpoints
  % R (resistance): 0.7%
K. pneumoniae ESBL+; Europe, N=151
  MIC90: 1 µg/mL (≈ 1.71 µM)
K. pneumoniae ESBL+; L. Amer, CLSI breakpoints
  % R (resistance): 0%
K. pneumoniae ESBL+; L. Amer, N=209
  MIC90: 2 µg/mL (≈ 3.41 µM)
K. pneumoniae ESBL+; N America, CLSI breakpoints
  % R (resistance): 0%
K. pneumoniae ESBL+; N America, N=108
  MIC90: 2 µg/mL (≈ 3.41 µM)
E. coli ESBL−; Asia/Pac, Eucast breakpoints
  % R (resistance): 0%
E. coli ESBL−; Asia/Pac, N=282
  MIC90: 0.25 µg/mL (≈ 0.427 µM)
E. coli ESBL−; Europe, Eucast breakpoints
  % R (resistance): 0%
E. coli ESBL−; Europe, N=1533
  MIC90: 0.25 µg/mL (≈ 0.427 µM)
E. coli ESBL−; L. Amer, CLSI breakpoints
  % R (resistance): 0%
E. coli ESBL−; L. Amer, N=389
  MIC90: 0.25 µg/mL (≈ 0.427 µM)
E. coli ESBL−; N America, CLSI breakpoints
  % R (resistance): 0%
E. coli ESBL−; N America, N=1172
  MIC90: 0.25 µg/mL (≈ 0.427 µM)
E. faecalis VNS; Asia/Pac, N=1
  range of MICs (N <10, shown instead of MIC90): 0.25
E. faecalis VNS; Europe, Eucast breakpoints
  % R (resistance): 0%
E. faecalis VNS; Europe, N=8
  range of MICs (N <10, shown instead of MIC90): ≤0.03-0.25
E. faecalis VNS; L. Amer, CLSI breakpoints
  % R (resistance): 0%
E. faecalis VNS; L. Amer, N=7
  range of MICs (N <10, shown instead of MIC90): ≤0.03-0.06
E. faecalis VNS; N America, CLSI breakpoints
  % R (resistance): 0%
E. faecalis VNS; N America, N=38
  MIC90: 0.25 µg/mL (≈ 0.427 µM)
E. cloacae CeftazS; Asia/Pac, Eucast breakpoints
  % R (resistance): 2%
E. cloacae CeftazS; Asia/Pac, N=100
  MIC90: 0.5 µg/mL (≈ 0.854 µM)
E. cloacae CeftazS; Europe, Eucast breakpoints
  % R (resistance): 0%
E. cloacae CeftazS; Europe, N=183
  MIC90: 0.5 µg/mL (≈ 0.854 µM)
E. cloacae CeftazS; L. Amer, CLSI breakpoints
  % R (resistance): 0%
E. cloacae CeftazS; L. Amer, N=57
  MIC90: 1 µg/mL (≈ 1.71 µM)
E. cloacae CeftazS; N America, CLSI breakpoints
  % R (resistance): 0%
E. cloacae CeftazS; N America, N=210
  MIC90: 0.5 µg/mL (≈ 0.854 µM)
MS CoNS; Asia/Pac
  % R (resistance): 0%
MS CoNS; Asia/Pac, N=18
  MIC90: 0.25 µg/mL (≈ 0.427 µM)
MS CoNS; Europe
  % R (resistance): 0%
MS CoNS; Europe, N=185
  MIC90: 0.25 µg/mL (≈ 0.427 µM)
MS CoNS; L. Amer, N=67
  MIC90: 0.25 µg/mL (≈ 0.427 µM)
MS CoNS; N America, N=191
  MIC90: 0.25 µg/mL (≈ 0.427 µM)
